Each structure is given as a SMILES string.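 Tested at 5 concentrations; 48 h exposure; 96-well plates; endpoints linearly interpolated, else capped at highest concentration. At the GI50, growth is halved. TGI: concentration producing complete growth inhibition.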

Test systems include T-47D breast; MOLT-4 leukemia; OVCAR-4 ovarian; SNB-19 CNS; UO-31 renal; SK-MEL-5 melanoma; NCI/ADR-RES ovarian; SF-539 CNS; KM12 colon; CAKI-1 renal.
Holding throughout (assay): growth of human tumour cells (NCI), 48 h

Take `O=C1NC(O)C(c2c[nH]c3ccccc23)=C1c1c[nH]c2ccccc12` (stereo not given): the GI50 with T-47D breast is above 25 µM; with MOLT-4 leukemia it was above 25 µM; in the assay with OVCAR-4 ovarian, above 25000 nM; in the assay with SNB-19 CNS, above 25 µM; with UO-31 renal it was 15.7 µM; in the assay on SK-MEL-5 melanoma it was above 25 µM. Also, the GI50 with NCI/ADR-RES ovarian is above 25 µM; in the assay with SF-539 CNS it was above 25000 nM; with KM12 colon, above 25 µM; in the assay with CAKI-1 renal it was above 25 µM. Moreover, the TGI in the assay on T-47D breast, in the assay with MOLT-4 leukemia, in the assay with OVCAR-4 ovarian, in the assay on SNB-19 CNS, with UO-31 renal and in the assay with SK-MEL-5 melanoma was above 25 µM each time. The TGI in the assay with NCI/ADR-RES ovarian, in the assay on SF-539 CNS, in the assay on KM12 colon and with CAKI-1 renal was above 25 µM each time.

Consider `O=C(CNc1ccc2c(c1)C(=O)c1ccccc1C2=O)Nc1ccc2c(c1)C(=O)c1ccccc1C2=O`, for which the GI50 is 0.604 µM in the assay on T-47D breast; 1500 nM with OVCAR-4 ovarian; 1.45 µM in the assay with SNB-19 CNS; 1.67 µM in the assay on UO-31 renal; 0.25 µM with SK-MEL-5 melanoma; 0.819 µM in the assay on NCI/ADR-RES ovarian. The GI50 is 1780 nM in the assay with SF-539 CNS, 1.4 µM in the assay on KM12 colon and 1.5 µM with CAKI-1 renal. Moreover, the TGI amounted to 2.32 µM in the assay with T-47D breast; 4.05 µM in the assay with OVCAR-4 ovarian; 2.9 µM in the assay on SNB-19 CNS; 3.1 µM with UO-31 renal; 0.669 µM in the assay on SK-MEL-5 melanoma; 4.68 µM in the assay with NCI/ADR-RES ovarian. In addition, the TGI in the assay with SF-539 CNS is 3.46 µM; in the assay with KM12 colon it was 2.73 µM; with CAKI-1 renal, 3.03 µM.

Turning to `COc1ccc(/C=C/C(=O)c2ccc(SC)cc2)cc1OC`, the GI50 with T-47D breast is 37.2 µM; with MOLT-4 leukemia, 22.4 µM; in the assay on OVCAR-4 ovarian, 40500 nM; in the assay on SNB-19 CNS, 21 µM; in the assay on UO-31 renal it was 13.3 µM; with SK-MEL-5 melanoma, 14.5 µM. Also, the GI50 is 10.9 µM in the assay with NCI/ADR-RES ovarian, 12000 nM with SF-539 CNS, 3.9 µM in the assay with KM12 colon and 7.5 µM in the assay on CAKI-1 renal. For the same compound, the TGI is above 100 µM in the assay with T-47D breast; above 100 µM in the assay on MOLT-4 leukemia; above 100 µM with OVCAR-4 ovarian; 56.9 µM with SNB-19 CNS; 30.2 µM in the assay on UO-31 renal; 31.7 µM in the assay on SK-MEL-5 melanoma. Besides, the TGI with NCI/ADR-RES ovarian worked out at 27.3 µM; with SF-539 CNS, 27.3 µM; in the assay with KM12 colon, 22.6 µM; with CAKI-1 renal, 25.6 µM.

`O=c1nc2n(-c3ccc(Cl)cc3)c3ccc([N+](=O)[O-])cc3cc-2c(=O)[nH]1`: the GI50 was 18.3 µM in the assay with T-47D breast; 13.4 µM in the assay with MOLT-4 leukemia; 71500 nM in the assay on OVCAR-4 ovarian; 17.8 µM in the assay with SNB-19 CNS; 20 µM in the assay with UO-31 renal; 18.6 µM with SK-MEL-5 melanoma. The GI50 was 49.6 µM in the assay with NCI/ADR-RES ovarian, 22500 nM in the assay on SF-539 CNS, 5.06 µM in the assay on KM12 colon and 21.5 µM in the assay on CAKI-1 renal. Moreover, the TGI with T-47D breast was 43.1 µM; with MOLT-4 leukemia it was above 100 µM; in the assay with OVCAR-4 ovarian, above 100 µM; with SNB-19 CNS, 83.3 µM; in the assay on UO-31 renal, 53.6 µM; with SK-MEL-5 melanoma, 41.6 µM. Further, the TGI in the assay with NCI/ADR-RES ovarian was above 100 µM; with SF-539 CNS, 53.9 µM; in the assay with KM12 colon it was 20 µM; in the assay on CAKI-1 renal, 60.1 µM.

Consider `C=C1C(=O)O[C@H]2[C@H]1CC/C(Cn1cc(-c3cc(C(F)(F)F)cc(C(F)(F)F)c3)nn1)=C\CC[C@@]1(C)O[C@@H]21`, for which the GI50 with T-47D breast was 0.33 µM; in the assay with MOLT-4 leukemia it was 0.191 µM; with OVCAR-4 ovarian, 508 nM; with SNB-19 CNS it was 1.71 µM; with UO-31 renal, 0.382 µM; in the assay on SK-MEL-5 melanoma, 1.47 µM. Moreover, the GI50 is 178 nM in the assay with SF-539 CNS and 1.04 µM with KM12 colon. The TGI with T-47D breast was determined as 1.62 µM; in the assay with MOLT-4 leukemia, 0.603 µM; with OVCAR-4 ovarian it was 1.8 µM; in the assay on SNB-19 CNS, 3.58 µM; in the assay with UO-31 renal, 1.58 µM; in the assay on SK-MEL-5 melanoma, 2.78 µM. Besides, the figures for the TGI with SF-539 CNS and in the assay with KM12 colon were 0.422 µM and 2.53 µM, respectively.

Turning to `c1ccc2[nH]c(-c3ccc(NN=Nc4ccncc4)cc3)nc2c1`, the GI50 is 93 µM in the assay on T-47D breast; above 100 µM in the assay on MOLT-4 leukemia; 39500 nM in the assay with OVCAR-4 ovarian; above 100 µM in the assay with SNB-19 CNS; 43.6 µM in the assay with UO-31 renal; 24.1 µM in the assay on SK-MEL-5 melanoma. Also, the GI50 in the assay with NCI/ADR-RES ovarian is above 100 µM; with KM12 colon, 23 µM; in the assay on CAKI-1 renal, 5.2 µM. The TGI in the assay with T-47D breast, in the assay on MOLT-4 leukemia, in the assay on OVCAR-4 ovarian, in the assay with SNB-19 CNS, with UO-31 renal and in the assay with SK-MEL-5 melanoma was above 100 µM in each case. For the same compound, the TGI in the assay with NCI/ADR-RES ovarian, with KM12 colon and in the assay on CAKI-1 renal was above 100 µM throughout.

For `Fc1ccc2c(c1)c(-c1nc(-c3c[nH]c4ncccc34)cs1)cn2CCCN1CCCCC1`, the GI50 with OVCAR-4 ovarian is 1830 nM; in the assay on UO-31 renal it was 1.28 µM; in the assay with SK-MEL-5 melanoma, 1.76 µM; with NCI/ADR-RES ovarian, 1.64 µM; in the assay with SF-539 CNS, 1670 nM. Besides, the TGI with OVCAR-4 ovarian worked out at 4.01 µM; with UO-31 renal, 2.64 µM; with SK-MEL-5 melanoma, 3.17 µM; in the assay on NCI/ADR-RES ovarian, 3.15 µM; in the assay on SF-539 CNS, 3.1 µM.

As to `COc1ccc(/C=C\c2cc(OC)c(OC)c(OC)c2)cc1OC(=O)c1cccc(Cn2cc(CCOC(=O)[C@H](N)Cc3cn(C)c4ccccc34)nn2)c1`, the GI50 in the assay on MOLT-4 leukemia was below 0.01 µM; with OVCAR-4 ovarian it was 208 nM; in the assay with SNB-19 CNS, below 0.01 µM; with UO-31 renal it was 0.192 µM; in the assay with SK-MEL-5 melanoma, below 0.01 µM; in the assay with NCI/ADR-RES ovarian, below 0.01 µM. In addition, the GI50 in the assay with SF-539 CNS is below 10 nM; in the assay with KM12 colon it was below 0.01 µM; in the assay on CAKI-1 renal it was below 0.0139 µM. The TGI in the assay on MOLT-4 leukemia was 18.8 µM; with OVCAR-4 ovarian it was above 85.4 µM; in the assay on SNB-19 CNS it was above 100 µM; in the assay on UO-31 renal, above 45.1 µM; with SK-MEL-5 melanoma it was 0.0254 µM; with NCI/ADR-RES ovarian, 23.5 µM. Also, the values for the TGI in the assay on SF-539 CNS, in the assay with KM12 colon and in the assay on CAKI-1 renal were 0.272 µM, 16.5 µM and above 61.3 µM, respectively.

The values above are taken from PubChem BioAssay (NCI).
